Consider seven molecules from patent US20050153872A1, “Methods and compositions for the treatment of infection” (priority 2004, published 2005).

Assay [1] has as its system S. aureus strain ATCC BAA-42 MRSA. To be noted: all agents 5 μg/ml.
The subject of the next assay is Enterococcus (20). Briefly: In vitro antibacterial activity (MIC), clinical isolates. Type of assay: cell-based. To be noted: 20 Enterococcus clinical isolates. On the procedure:
(§1) The following experiments were performed by Lab. of Pharmacology, National Sichuan antibiotic industril institute, Chengdu, Sichuan.
(§2) The following agents were used to test the in vitro activity of Ph-SA:
(§3) All the bacterial strains used in the experiments were clinical isolates collected from Sichuan and Beijing in 2002 and identified by West China Hospital, Sichuan University and Chongqing University of Medical Sciences with API system. The following strains were used in the experiments detailed below: Staphylococcus aureus 168 strains (MRSA 80 strains and MSSA 88 strains) Staphylococcus epidermidis 46 strains (MRSE 25 strains and MSSE 21 strains), Enterococcus 20 strains, and Acenetobactor 20 strains. Staphylococcus aureus ATCC25923, 29213 and BAA-42 were used as control strains. Bacterial strains were contacted with one of the above described compounds and MIC50, MIC90 and MICScope were determined.

The test system of assay [2] is Staphylococcus epidermidis MSSE strain (21). Described as above. Format: cell-based. Particulars: Staphylococcus epidermidis, 21 MSSE clinical isolates. On the procedure:
as §1, §2, §3

Assay [3] concerns Staphylococcus aureus MRSA strain (80). The assay is described as above. Particulars: Staphylococcus aureus, MRSA. Type of assay: cell-based. On the procedure: as §1, §2, §3
Assay [4] relates to Staphylococcus epidermidis MRSE strain (25). Described as above. Format: cell-based. Particulars: Staphylococcus epidermidis, MRSE. On the procedure: as §1, §2, §3
In assay [5] the test system is Staphylococcus aureus MSSA strain (88). The assay is described as above. Type of assay: cell-based. Particulars: Staphylococcus aureus, 88 MSSA clinical isolates. On the procedure:
as §1, §2, §3

The subject of the next assay is Acenetobactor (20). The description is as above. Format: cell-based. On the procedure:
as §1, §2, §3

Assay [6] concerns ATCC 700671 PRSP (S. pneumoniae). In words: In vivo protection effects of Ph-SP. Set-up: species or system mice. Particulars: 5 animals. On the procedure:
To assess the in vivo effect of Ph-SP, mice were injected with ATCC 700671 PRSP intraperitoneally, followed by intravenous injections of PH-SP or controls.
One hour after administration of the fatal dose of ATCC 700671 PRSP (10^5 CFU/ml), each mouse was injected through the tail vein with test agents at three dosages as described in Table 4.

One may read the MIC50 as an inhibitory concentration at the 50% level, which refers to growth in some studies and to a panel of isolates in others. For orientation: MIC90 means the lowest concentration that inhibits either 90% of growth or 90% of the strains tested, depending on the study. The term MIC denotes the lowest concentration found to suppress growth.

Substitutions are numbered along the chain they refer to. In brackets after ≈: the same amount, converted by molar mass.

For the molecule `Cc1onc(-c2ccccc2)c1C(=O)N[C@@H]1C(=O)N2[C@@H]1SC(C)(C)[C@@H]2C(=O)O` [Oxacillin, oxacillin], the inhibition of growth result in assay [1] is listed as “did not inhibit the growth”. In addition, the MIC50 is 16 µg/mL (≈ 39.9 µM) in the assay on Enterococcus (20) (read-out: MIC50); 0.03 µg/mL (≈ 0.0747 µM) in assay [2] (read-out: MIC50); greater than 128 µg/mL in assay [3]; 64 µg/mL (≈ 159 µM) in assay [4]; 0.125 µg/mL (≈ 0.311 µM) in assay [5] (read-out: MIC50); greater than 128 µg/mL in the assay with Acenetobactor (20). Moreover, the MIC90 is greater than 128 µg/mL in the assay with Enterococcus (20) (read-out: MIC90); 0.25 µg/mL (≈ 0.623 µM) in assay [2] (read-out: MIC90); greater than 128 µg/mL in assay [3]; greater than 128 µg/mL in assay [4]; 0.125 µg/mL (≈ 0.311 µM) in assay [5] (read-out: MIC90); greater than 128 µg/mL against Acenetobactor (20). For the same molecule, the MIC in assay [2] was 0.015 to 0.25 µg/mL (≈ 0.0374 to 0.623 µM); in assay [3] (read-out: MIC Scope) it was 0.5 to 128 µg/mL (≈ 1.25 to 319 µM); in assay [5] (read-out: MIC Scope) it was 0.015 to 0.25 µg/mL (≈ 0.0374 to 0.623 µM); with Acenetobactor (20) (read-out: MIC Scope), greater than 128 µg/mL.
Regarding cephalomycin, in assay [6] (5 mg/kg tail vein), the “Death distribution in hours 24 h” value amounted to 3, the “Death distribution in hours 48 h” value was 1, the “Death distribution in hours 72 h” value stood at 0 and the “Death distribution in hours 96 h” value is 0. In assay [6] (5 mg/kg tail vein), the “Death distribution in hours 120 h” value is given as 0, the “Death distribution in hours 144 h” value stood at 0, the “Death distribution in hours 168 h” value was found to be 0 and the “Number of Death” value was found to be 4. In addition, in assay [6] (10 mg/kg tail vein), the “Death distribution in hours 24 h” value came to 2, the “Death distribution in hours 48 h” value is 1, the “Death distribution in hours 72 h” value stood at 0 and the “Death distribution in hours 96 h” value was 0. In assay [6] (10 mg/kg tail vein), the “Death distribution in hours 120 h” value worked out at 0, the “Death distribution in hours 144 h” value is listed as 0, the “Death distribution in hours 168 h” value is recorded as 0 and the “Number of Death” value is given as 3.

B1: Ph-SAR1: the AgrDI pheromone of S. aureus linked to the N-terminus of Colicin Ia (protein)
chain: YSTCDFIMSDPVRITNPGAESLGYDSDGHEIMAVDIYVNPPRVDVFHGTPPAWSSFGNKTIWGGNEWVDDSPTRSDIEKRDKEITAYKNTLSAQQKENENKRTEAGKRLSAAIAAREKDENTLKTLRAGNADAADITRQEFRLLQAELREYGFRTEIAGYDALRLHTESRMLFADADSLRISPREARSLIEQAEKRQKDAQNADKKAADMLAEYERRKGILDTRLSELEKNGGAALAVLDAQQARLLGQQTRNDRAISEARNKLSSVTESLNTARNALTRAEQQLTQQKNTPDGKTIVSPEKFPGRSSTNHSIVVSGDPRFAGTIKITTSAVIDNRANLNYLLSHSGLDYKRNILNDRNPVVTEDVEGDKKIYNAEVAEWDKLRQRLLDARNKITSAESAVNSARNNLSARTNEQKHANDALNALLKEKENIRNQLSGINQKIAEEKRKQDELKATKDAINFTTEFLKSVSEKYGAKAEQLAREMAGQAKGKKIRNVEEALKTYEKYRADINKKINAKDRAAIAAALESVKLSDISSNLNRFSRGLGYAGKFTSLADWITEFGKAVRTENWRPLFVKTETIIAGNAATALVALVFSILTGSALGIIGYGLLMAVTGALIDESLVEKANKFWGI
modifications: Pheromone peptide from Staphylococcus aureus AgrDI attached to Colicin Ia
Turning to B1, the inhibition of growth result in assay [1] is on record as “did not inhibit the growth”.

B2: Ph-SA4: Colicin Ia linked to the AgrDIV pheromone of S. aureus (protein)
chain: SDPVRITNPGAESLGYDSDGHEIMAVDIYVNPPRVDVFHGTPPAWSSFGNKTIWGGNEWVDDSPTRSDIEKRDKEITAYKNTLSAQQKENENKRTEAGKRLSAAIAAREKDENTLKTLRAGNADAADITRQEFRLLQAELREYGFRTEIAGYDALRLHTESRMLFADADSLRISPREARSLIEQAEKRQKDAQNADKKAADMLAEYERRKGILDTRLSELEKNGGAALAVLDAQQARLLGQQTRNDRAISEARNKLSSVTESLNTARNALTRAEQQLTQQKNTPDGKTIVSPEKFPGRSSTNHSIVVSGDPRFAGTIKITTSAVIDNRANLNYLLSHSGLDYKRNILNDRNPVVTEDVEGDKKIYNAEVAEWDKLRQRLLDARNKITSAESAVNSARNNLSARTNEQKHANDALNALLKEKENIRNQLSGINQKIAEEKRKQDELKATKDAINFTTEFLKSVSEKYGAKAEQLAREMAGQAKGKKIRNVEEALKTYEKYRADINKKINAKDRAAIAAALESVKLSDISSNLNRFSRGLGYAGKFTSLADWITEFGKAVRTENWRPLFVKTETIIAGNAATALVALVFSILTGSALGIIGYGLLMAVTGALIDESLVEKANKFWGIYSTCYFIM
modifications: Colicin attached to Pheromone peptide encoding Staphylococcus aureus AgrDIV
Consider B2, for which, in assay [1], the inhibition of growth result was “best inhibitory effects”.

B3: Ph-SA3: Colicin Ia linked to the AgrDIII pheromone of S. aureus (protein)
chain: B2 chain with S627I, T628N, Y630D, I632L, M633L
modifications: Colicin attached to Pheromone peptide encoding Staphylococcus aureus AgrDIII
As to B3, the inhibition of growth entry in assay [1] is reported as “some inhibition effects”.

B4: Ph-SE: Colicin Ia linked to the pheromone of S. epidermidis (protein)
chain: SDPVARGITNPGAESLGYDSDGHEIMAVASPIYVASNPPRVASPVFHGTPPAWSSFGNKTIWGGNEWVASPDSPTRSDIEKRDKEITAYKNTLSAQQKENENKRTEAGKRLSAAIAAREKDENTLKTLRAGNADAADITRQEFRLLQAELREYGFRTEIAGYDALRLHTESRMLFADADSLRISPREARSLIEQAEKRQKDAQNADKKAADMLAEYERRKGILDTRLSELEKNGGAALAVLDAQQARLLGQQTRNDRAISEARNKLSSVTESLNTARNALTRAEQQLTQQKNTPDGKTIVSPEKFPGRSSTNHSIVVSGDPRFAGTIKITTSAVIDNRANLNYLLSHSGLDYKRNILNDRNPVVTEDVEGDKKIYNAEVALAEWDKLRQRLLDARNKITSAESAVASNSARNNLSARTNEQKHANDALNALLKEKENIRNQLSGINQKIAEEKRKQDELKATKDAINFTTEFLKSVSEKYGAKAEQLAREMAGQAKGKKIRNVEEALKTYEKYRADINKKINAKDRAAIAAALESVKLSDISSNLNRFSRGLGYAGKFTSLADWITEFGKAVARGTENWRPLFVKTETIIAGNAATALVALALVFSILTGSALGIIGYGLLMAVTGALIDESLVEKANKFWGIDSVCASYF
modifications: Colicin Ia attached to Pheromone peptide from Staphylococcus epidermidis
In the case of B4, the inhibition of growth result in assay [1] is recorded as “better effects”.

B5: Ph-SA2: Colicin Ia linked to the AgrDII pheromone of S. aureus (protein)
chain: SDPVRITNPGAESLGYDSDGHEIMAVDIYVNPPRVDVFHGTPPAWSSFGNKTIWGGNEWVDDSPTRSDIEKRDKEITAYKNTLSAQQKENENKRTEAGKRLSAAIAAREKDENTLKTLRAGNADAADITRQEFRLLQAELREYGFRTEIAGYDALRLHTESRMLFADADSLRISPREARSLIEQAEKRQKDAQNADKKAADMLAEYERRKGILDTRLSELEKNGGAALAVLDAQQARLLGQQTRNDRAISEARNKLSSVTESLNTARNALTRAEQQLTQQKNTPDGKTIVSPEKFPGRSSTNHSIVVSGDPRFAGTIKITTSAVIDNRANLNYLLSHSGLDYKRNILNDRNPVVTEDVEGDKKIYNAEVAEWDKLRQRLLDARNKITSAESAVNSARNNLSARTNEQKHANDALNALLKEKENIRNQLSGINQKIAEEKRKQDELKATKDAINFTTEFLKSVSEKYGAKAEQLAREMAGQAKGKKIRNVEEALKTYEKYRADINKKINAKDRAAIAAALESVKLSDISSNLNRFSRGLGYAGKFTSLADWITEFGKAVRTENWRPLFVKTETIIAGNAATALVALVFSILTGSALGIIGYGLLMAVTGALIDESLVEKANKFWGIGVNACSSLF
modifications: Colicin attached to Pheromone peptide encoding Staphylococcus aureus AgrDII
For the molecule B5, the inhibition of growth entry in assay [1] was “some inhibition effects”.
